The record followed here is ChEMBL document CHEMBL1806420, “Design, synthesis and antimycobacterial evaluation of novel 3-substituted-N-aryl-6,7-dimethoxy-3a,4-dihydro-3H-indeno[1,2-c]pyrazole-2-carboxamide analogues” (Bioorg Med Chem Lett, 2011).

Values after ≈ are worked out from the molar mass of the structure shown.

The subject of data set [1] is Vero. The data set is described as follows: Cytotoxicity against african green monkey Vero cells upto 62.5 ug/ml after 72 hrs by MTT assay. Type of data set: cell-based. The conditions noted are these: chlorocebus sabaeus. For orientation: Tetrazolium dyes change colour on reduction, which living cells bring about.
The subject of data set [2] is Mycobacterium tuberculosis. Kind of data set: Antimycobacterial activity against Mycobacterium tuberculosis H37Rv by agar dilution method. Type of data set: functional. In general terms: In agar dilution, organisms are placed on agar that contains the substance at set levels.

What is called MIC is the smallest concentration in the dilution series that meets the test's criterion for growth inhibition. Take `COc1cc2c(cc1OC)C1=NN(C(=O)Nc3ccc(F)c(Cl)c3)C(c3ccccc3)C1C2` (configuration not stated): in data set [1], the Activity result was “Non-toxic”. This molecule also gave an MIC in data set [2] of 6.25 µM (≈ 2.91 µg/mL).

In the case of `COc1ccc(C2C3Cc4cc(OC)c(OC)cc4C3=NN2C(=O)Nc2ccc(F)c(Cl)c2)cc1` (configuration not stated), the MIC in data set [2] was more than 6.25 µM.

On to `COc1cc2c(cc1OC)C1=NN(C(=O)Nc3ccc(F)cc3)C(c3ccncc3)C1C2` (configuration not stated), for which the Activity entry in data set [1] is on record as “Non-toxic”. For the same molecule, the MIC in data set [2] was determined as 3.12 µM (≈ 1.35 µg/mL).

In the case of `COc1cc2c(cc1OC)C1=NN(C(=O)Nc3ccc(F)cc3)C(c3ccccc3Cl)C1C2` (configuration not stated), the Activity result in data set [1] is on record as “Non-toxic”. The MIC in data set [2] was 6.25 µM (≈ 2.91 µg/mL).

For `COc1cc2c(cc1OC)C1=NN(C(=O)Nc3ccc(F)cc3)C(c3ccc(F)cc3)C1C2` (configuration not stated), the Activity entry in data set [1] is “Non-toxic”. Also, in data set [2], the MIC was found to be 0.78 µM (≈ 0.351 µg/mL).

As to `COc1ccc(C2C3Cc4cc(OC)c(OC)cc4C3=NN2C(=O)Nc2ccc(F)cc2)cc1OC` (configuration not stated), the Activity entry in data set [1] is reported as “Non-toxic”. The MIC in data set [2] is more than 10 µM.

For the molecule `COc1cc2c(cc1OC)C1=NN(C(=O)Nc3ccc(F)cc3)C(c3ccccc3)C1C2` (configuration not stated), the MIC in data set [2] was more than 6.25 µM.

Take `COc1ccc(C2C3Cc4cc(OC)c(OC)cc4C3=NN2C(=O)Nc2ccc(F)cc2)cc1` (configuration not stated): in data set [1], the Activity entry is on record as “Non-toxic”. The same molecule displayed an MIC in data set [2] of 10 µM (≈ 4.61 µg/mL).

Turning to `COc1cc2c(cc1OC)C1=NN(C(=O)Nc3ccc(Br)cc3)C(c3ccncc3)C1C2` (configuration not stated), the Activity result in data set [1] is “Non-toxic”. The molecule further yielded an MIC in data set [2] of 6.25 µM (≈ 3.08 µg/mL).

Turning to `COc1cc2c(cc1OC)C1=NN(C(=O)Nc3ccc(Br)cc3)C(c3ccccc3Cl)C1C2` (configuration not stated), the MIC in data set [2] is more than 6.25 µM.

As for `COc1cc2c(cc1OC)C1=NN(C(=O)Nc3ccc(Br)cc3)C(c3ccc(F)cc3)C1C2` (configuration not stated), in data set [1], the Activity entry is given as “Non-toxic”. In data set [2], this molecule showed an MIC of 3.12 µM (≈ 1.59 µg/mL).

Take `COc1ccc(C2C3Cc4cc(OC)c(OC)cc4C3=NN2C(=O)Nc2ccc(Br)cc2)cc1OC` (configuration not stated): the Activity entry in data set [1] was “Non-toxic”. Moreover, in data set [2], the MIC is more than 10 µM.

For the molecule `COc1cc2c(cc1OC)C1=NN(C(=O)Nc3ccc(Br)cc3)C(c3ccccc3)C1C2` (configuration not stated), in data set [2], the MIC is more than 6.25 µM.

For the molecule `COc1ccc(C2C3Cc4cc(OC)c(OC)cc4C3=NN2C(=O)Nc2ccc(Br)cc2)cc1` (configuration not stated), the Activity entry in data set [1] is reported as “Non-toxic”. The molecule also yielded an MIC in data set [2] of more than 10 µM.

In data set [2], `COc1cc2c(cc1OC)C1=NN(C(=O)Nc3ccc(F)c(Cl)c3)C(c3ccncc3)C1C2` (configuration not stated) gave an MIC of more than 6.25 µM.

As for `COc1cc2c(cc1OC)C1=NN(C(=O)Nc3ccc(F)c(Cl)c3)C(c3ccccc3Cl)C1C2` (configuration not stated), the Activity entry in data set [1] was “Non-toxic”. The lowest concentration to inhibit growth in data set [2] (MIC) was 6.25 µM (≈ 3.13 µg/mL).

For `COc1cc2c(cc1OC)C1=NN(C(=O)Nc3ccc(F)c(Cl)c3)C(c3ccc(F)cc3)C1C2` (configuration not stated), in data set [1], the Activity entry was “Non-toxic”. This molecule returned an MIC in data set [2] of 0.78 µM (≈ 0.377 µg/mL).

The molecule `COc1ccc(C2C3Cc4cc(OC)c(OC)cc4C3=NN2C(=O)Nc2ccc(F)c(Cl)c2)cc1OC` (configuration not stated) came in with an MIC in data set [2] of more than 6.25 µM.

As to `NNC(=O)c1ccncc1` [ISONIAZID], the MIC in data set [2] was found to be 0.78 µM (≈ 0.107 µg/mL).

With `CO[C@H]1/C=C/O[C@@]2(C)Oc3c(C)c(O)c4c(O)c(c(/C=N/N5CCN(C)CC5)c(O)c4c3C2=O)NC(=O)/C(C)=C\C=C\[C@H](C)[C@H](O)[C@@H](C)[C@@H](O)[C@@H](C)[C@H](OC(C)=O)[C@@H]1C` [RIFAMPIN], it took 0.006 µM (≈ 0.00494 µg/mL) to inhibit growth in data set [2] (MIC).
